compound: CN(C)C(=N)NC(=N)N [Metformin] + CS(=O)(=O)CCNCc1ccc(-c2ccc3ncnc(Nc4ccc(OCc5cccc(F)c5)c(Cl)c4)c3c2)o1 [Lapatinib] (partner 2 µM); experiment: relative viability (nuclei count vs DMSO), 5 days (fraction); higher = more cells survive; settings: first compound 1000 µM
Procedure, shortened: (§1)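 Nuclei were stained with Hoechst during a one-step fixation (final 0.05% Triton X-100, 1% formaldehyde, 1 ug/ml Hoechst) carried out 5 days after dosing, then counted on 4× images. The cells, lung cancer lines in 1536-well plates, had been dosed by pin tool the day after seeding with one drug alone or a fixed anchor-drug dose plus five library-drug doses (not always all listed) in √10 steps. Relative viability is the nuclei count in treated wells divided by that in vehicle wells, and each value is the median of duplicate plates.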

**Q.** For NCI-H2405, which relative viability is on record?
**A.** 0.556

**Q.** How did the relative viability turn out when NCI-H3122 was run?
**A.** 0.819

compound: CN(C)C(=N)NC(=N)N [Metformin] + C[C@@H](Oc1cc(-c2cnn(C3CCNCC3)c2)cnc1N)c1c(Cl)ccc(F)c1Cl [Crizotinib] (partner 1 µM); experiment: as above; settings: first compound 10 µM
Procedure, shortened: as §1

**Q.** Which relative viability does the source give for LU99A here?
**A.** 0.47

**Q.** Which relative viability does the source give for LXF-289 here?
**A.** 0.764

**Q.** How did the relative viability turn out when NCI-H23 was run?
**A.** 0.574

**Q.** How did the relative viability turn out when NCI-H322M was run?
**A.** 0.884

**Q.** With NCI-H358 as the cell line, how does the relative viability read?
**A.** 0.551

**Q.** NCI-H520 was tested. Which relative viability did it give?
**A.** 0.804

**Q.** Which relative viability does the source give for NCI-H596 here?
**A.** 1.05

**Q.** With NCI-H647 as the cell line, how does the relative viability read?
**A.** 0.982

**Q.** NCI-H650 was tested. Which relative viability did it give?
**A.** 0.709

**Q.** With NCI-H727 as the cell line, how does the relative viability read?
**A.** 0.886

**Q.** NCI-H838 was tested. Which relative viability did it give?
**A.** 0.815

**Q.** For NCI-H1355, which relative viability is on record?
**A.** 1.01

**Q.** With NCI-H1437 as the cell line, how does the relative viability read?
**A.** 0.931

**Q.** Which relative viability does the source give for NCI-H1563 here?
**A.** 0.855

**Q.** With NCI-H1651 as the cell line, how does the relative viability read?
**A.** 0.933

**Q.** For NCI-H1666, which relative viability is on record?
**A.** 1.26

**Q.** Which relative viability does the source give for NCI-H1734 here?
**A.** 0.743

**Q.** Which relative viability does the source give for NCI-H1755 here?
**A.** 0.677

**Q.** NCI-H1944 was tested. Which relative viability did it give?
**A.** 1.06

**Q.** NCI-H1975 was tested. Which relative viability did it give?
**A.** 1.09

**Q.** How did the relative viability turn out when NCI-H1993 was run?
**A.** 1.12

**Q.** With NCI-H2009 as the cell line, how does the relative viability read?
**A.** 1.06

**Q.** With NCI-H2085 as the cell line, how does the relative viability read?
**A.** 0.952

**Q.** How did the relative viability turn out when NCI-H2087 was run?
**A.** 0.813

**Q.** For NCI-H2126, which relative viability is on record?
**A.** 0.863

**Q.** How did the relative viability turn out when NCI-H2228 was run?
**A.** 0.48

**Q.** How did the relative viability turn out when NCI-H2347 was run?
**A.** 0.545

**Q.** NCI-H2405 was tested. Which relative viability did it give?
**A.** 0.815

**Q.** How did the relative viability turn out when NCI-H3122 was run?
**A.** 0.225

same assay, conditions: first compound 31.62 µM

**Q.** With LU99A as the cell line, how does the relative viability read?
**A.** 0.52

**Q.** LXF-289 was tested. Which relative viability did it give?
**A.** 0.759

**Q.** NCI-H23 was tested. Which relative viability did it give?
**A.** 0.692

**Q.** With NCI-H322M as the cell line, how does the relative viability read?
**A.** 1.01

**Q.** With NCI-H358 as the cell line, how does the relative viability read?
**A.** 0.448

**Q.** How did the relative viability turn out when NCI-H520 was run?
**A.** 0.75

**Q.** Which relative viability does the source give for NCI-H596 here?
**A.** 1.17

**Q.** Which relative viability does the source give for NCI-H647 here?
**A.** 1.02

**Q.** For NCI-H650, which relative viability is on record?
**A.** 0.669

**Q.** NCI-H661 was tested. Which relative viability did it give?
**A.** 0.848

**Q.** With NCI-H727 as the cell line, how does the relative viability read?
**A.** 0.886

**Q.** For NCI-H838, which relative viability is on record?
**A.** 0.814

**Q.** NCI-H1355 was tested. Which relative viability did it give?
**A.** 1.06

**Q.** With NCI-H1437 as the cell line, how does the relative viability read?
**A.** 0.918

**Q.** Which relative viability does the source give for NCI-H1563 here?
**A.** 0.889

**Q.** How did the relative viability turn out when NCI-H1651 was run?
**A.** 0.957

**Q.** With NCI-H1666 as the cell line, how does the relative viability read?
**A.** 1.03

**Q.** For NCI-H1734, which relative viability is on record?
**A.** 0.83

**Q.** NCI-H1755 was tested. Which relative viability did it give?
**A.** 0.792

**Q.** Which relative viability does the source give for NCI-H1792 here?
**A.** 0.956

**Q.** For NCI-H1915, which relative viability is on record?
**A.** 0.985

**Q.** Which relative viability does the source give for NCI-H1944 here?
**A.** 1.29

**Q.** Which relative viability does the source give for NCI-H1975 here?
**A.** 1.12

**Q.** With NCI-H1993 as the cell line, how does the relative viability read?
**A.** 0.849

**Q.** Which relative viability does the source give for NCI-H2009 here?
**A.** 1.07

**Q.** NCI-H2023 was tested. Which relative viability did it give?
**A.** 0.767

**Q.** Which relative viability does the source give for NCI-H2085 here?
**A.** 0.694

**Q.** For NCI-H2087, which relative viability is on record?
**A.** 0.726

**Q.** Which relative viability does the source give for NCI-H2126 here?
**A.** 0.946

**Q.** How did the relative viability turn out when NCI-H2228 was run?
**A.** 0.515

**Q.** NCI-H2347 was tested. Which relative viability did it give?
**A.** 0.763

**Q.** How did the relative viability turn out when NCI-H2405 was run?
**A.** 0.93

**Q.** For NCI-H3122, which relative viability is on record?
**A.** 0.213

same assay, conditions: first compound 100 µM

**Q.** LU99A was tested. Which relative viability did it give?
**A.** 0.443

**Q.** For LXF-289, which relative viability is on record?
**A.** 0.812

**Q.** Which relative viability does the source give for NCI-H23 here?
**A.** 0.693

**Q.** NCI-H322M was tested. Which relative viability did it give?
**A.** 0.958

**Q.** With NCI-H358 as the cell line, how does the relative viability read?
**A.** 0.587

**Q.** How did the relative viability turn out when NCI-H520 was run?
**A.** 0.803

**Q.** For NCI-H596, which relative viability is on record?
**A.** 1.09

**Q.** With NCI-H647 as the cell line, how does the relative viability read?
**A.** 0.955

**Q.** How did the relative viability turn out when NCI-H650 was run?
**A.** 0.908

**Q.** With NCI-H661 as the cell line, how does the relative viability read?
**A.** 0.843

**Q.** NCI-H727 was tested. Which relative viability did it give?
**A.** 1.04

**Q.** Which relative viability does the source give for NCI-H838 here?
**A.** 0.875

**Q.** With NCI-H1355 as the cell line, how does the relative viability read?
**A.** 1.03

**Q.** How did the relative viability turn out when NCI-H1437 was run?
**A.** 0.935

**Q.** For NCI-H1563, which relative viability is on record?
**A.** 0.865

**Q.** For NCI-H1651, which relative viability is on record?
**A.** 0.939

From the supplement of paper PMC10307832
